{"source": "the Deep4Chem optical property database", "experiment": "photoluminescence quantum yield (fraction); solvent given as SMILES", "data": [{"smiles": "FC(F)(F)c1cc2n(n1)[B-]1(c3ccccc3Oc3ccccc31)[n+]1ccc3ccccc3c1-2", "values": [{"measurement": "photoluminescence quantum yield", "setting": "in C1CCCCC1", "value": 0.0026}, {"measurement": "photoluminescence quantum yield", "setting": "in Cc1ccccc1", "value": 0.0027}, {"measurement": "photoluminescence quantum yield", "setting": "in ClCCl", "value": 0.0029}]}, {"smiles": "COc1cc(/C=C2/SC(=O)NC2=O)cc(OC)c1O", "values": [{"measurement": "photoluminescence quantum yield", "setting": "in C1CCCCC1", "value": 0.032}, {"measurement": "photoluminescence quantum yield", "setting": "in C1COCCO1", "value": 0.03}, {"measurement": "photoluminescence quantum yield", "setting": "in CC#N", "value": 0.02}, {"measurement": "photoluminescence quantum yield", "setting": "in CN(C)C=O", "value": 0.042}, {"measurement": "photoluminescence quantum yield", "setting": "in CO", "value": 0.034}, {"measurement": "photoluminescence quantum yield", "setting": "in O", "value": 0.027}, {"measurement": "photoluminescence quantum yield", "setting": "in OCC(O)CO", "value": 0.38}, {"measurement": "photoluminescence quantum yield", "setting": "in OCCO", "value": 0.108}]}, {"smiles": "CC1=CC(c2ccc(N(C)C)cc2)=[N+]2C1=Nc1c(C)cc(-c3ccc(N(C)C)cc3)n1[B-]2(F)F", "values": [{"measurement": "photoluminescence quantum yield", "setting": "in C1CCOC1", "value": 0.13}, {"measurement": "photoluminescence quantum yield", "setting": "in CS(C)=O", "value": 0.01}, {"measurement": "photoluminescence quantum yield", "setting": "in Cc1ccccc1", "value": 0.21}]}, {"smiles": "COC(=O)CNC(=O)CCNc1cccc2ccccc12", "values": [{"measurement": "photoluminescence quantum yield", "setting": "in CCO", "value": 0.55}]}, {"smiles": "CC(C)(C)c1ccc2c(c1)c1cc(C(C)(C)C)ccc1n2-c1cccc2c1Oc1c(-c3nc(-c4ccccc4)nc(-c4ccccc4)n3)cccc1C2(C)C", "values": [{"measurement": "photoluminescence quantum yield", "setting": "in Cc1ccccc1", "value": 0.06}]}, {"smiles": "c1ccc(N(c2ccccc2)c2ccc(-c3ccc4c(c3)C3(c5ccccc5Sc5ccccc53)c3cc(-c5ccc(N(c6ccccc6)c6ccccc6)cc5)ccc3-4)cc2)cc1", "values": [{"measurement": "photoluminescence quantum yield", "setting": "in ClCCl", "value": 0.81}, {"measurement": "photoluminescence quantum yield", "setting": "in c1cc(-n2c3ccccc3c3ccccc32)cc(-n2c3ccccc3c3ccccc32)c1", "value": 0.88}]}, {"smiles": "COc1ccc(-c2c3ccccc3c(C#Cc3ccccc3)c3cc4ccccc4cc23)cc1", "values": [{"measurement": "photoluminescence quantum yield", "setting": "in ClCCl", "value": 0.6}]}, {"smiles": "CCCN1/C(=C/C=C(/C=C/c2sc3ccccc3[n+]2CCC)c2ccc([N+](=O)[O-])cc2)Sc2ccccc21", "values": [{"measurement": "photoluminescence quantum yield", "setting": "in CO", "value": 0.05}, {"measurement": "photoluminescence quantum yield", "setting": "in CS(C)=O", "value": 0.02}, {"measurement": "photoluminescence quantum yield", "setting": "in O", "value": 0.02}]}, {"smiles": "COc1ccc(-c2oc3cccc4c5c(-c6ccc(OC)cc6)/c(=N/S(=O)(=O)C(F)(F)F)oc6cccc(c2c34)c65)cc1", "values": [{"measurement": "photoluminescence quantum yield", "setting": "in ClC(Cl)Cl", "value": 0.96}]}, {"smiles": "O=C1c2ccc3c4c(-c5ccccc5)cc5c6c(ccc(c7c(-c8ccccc8)cc(c2c37)C(=O)N1C1CCCCC1)c64)C(=O)N(C1CCCCC1)C5=O", "values": [{"measurement": "photoluminescence quantum yield", "setting": "in ClC(Cl)Cl", "value": 0.186}]}, {"smiles": "c1ccc(-c2ccc(-c3ccccc3)s2)cc1", "values": [{"measurement": "photoluminescence quantum yield", "setting": "in C1CCOC1", "value": 0.07}]}, {"smiles": "N#Cc1ccc(-c2pc3ccccc3s2)cc1", "note": "(stereo not drawn)", "values": [{"measurement": "photoluminescence quantum yield", "setting": "in CC#N", "value": 0.017}]}, {"smiles": "N#Cc1ccc(Oc2ccc3c4c(cccc24)C(=O)N(CCO)C3=O)cc1", "values": [{"measurement": "photoluminescence quantum yield", "setting": "in ClC(Cl)Cl", "value": 0.55}]}, {"smiles": "CC1=N/C(=C\\c2ccc(C#N)c(N(C)C)c2)C(=O)N1C", "values": [{"measurement": "photoluminescence quantum yield", "setting": "in C1CCOC1", "value": 0.07}, {"measurement": "photoluminescence quantum yield", "setting": "in CC#N", "value": 0.02}, {"measurement": "photoluminescence quantum yield", "setting": "in CCCCCC", "value": 0.41}]}, {"smiles": "COc1cc(/C=C2/SC(=O)NC2=O)ccc1O", "values": [{"measurement": "photoluminescence quantum yield", "setting": "in C1CCCCC1", "value": 0.018}, {"measurement": "photoluminescence quantum yield", "setting": "in C1COCCO1", "value": 0.017}, {"measurement": "photoluminescence quantum yield", "setting": "in CC#N", "value": 0.01}, {"measurement": "photoluminescence quantum yield", "setting": "in CN(C)C=O", "value": 0.023}, {"measurement": "photoluminescence quantum yield", "setting": "in CO", "value": 0.012}, {"measurement": "photoluminescence quantum yield", "setting": "in O", "value": 0.011}, {"measurement": "photoluminescence quantum yield", "setting": "in OCC(O)CO", "value": 0.35}, {"measurement": "photoluminescence quantum yield", "setting": "in OCCO", "value": 0.104}]}, {"smiles": "COc1ccc(C2=Nc3sc(-c4ccccc4)n[n+]3[B-](F)(F)O2)cc1", "values": [{"measurement": "photoluminescence quantum yield", "setting": "in Cc1ccccc1", "value": 0.29}]}, {"smiles": "C[Si](C)(c1c2ccccc2cc2ccccc12)[Si](C)(C)c1c2ccccc2cc2ccccc12", "values": [{"measurement": "photoluminescence quantum yield", "setting": "in C1CCCCC1", "value": 0.07}, {"measurement": "photoluminescence quantum yield", "setting": "in CC#N", "value": 0.07}]}, {"smiles": "COc1ccc2nc3c(nc2c1)c(-c1ccccc1)nn3C", "values": [{"measurement": "photoluminescence quantum yield", "setting": "in C1CCCCC1", "value": 0.22}, {"measurement": "photoluminescence quantum yield", "setting": "in C1CCOC1", "value": 0.34}, {"measurement": "photoluminescence quantum yield", "setting": "in CC#N", "value": 0.35}]}, {"smiles": "Brc1cc2nc3cc4c5c(cccc5c3nc2cc1Br)C(c1ccccc1)=C(c1ccccc1)O4", "values": [{"measurement": "photoluminescence quantum yield", "setting": "in ClCCl", "value": 0.12}]}, {"smiles": "COC(=O)c1cc(=O)n(C)c2cc(-c3cccc(OC)c3)sc12", "values": [{"measurement": "photoluminescence quantum yield", "setting": "in CC#N", "value": 0.32}, {"measurement": "photoluminescence quantum yield", "setting": "in ClCCl", "value": 0.48}]}, {"smiles": "CCCCCCOc1ccc(C#Cc2ccc(C#CC#Cc3ccc(C#Cc4ccc(OCCCCCC)c(OCCCCCC)c4)c4nsnc34)c3nsnc23)cc1OCCCCCC", "values": [{"measurement": "photoluminescence quantum yield", "setting": "in CN(C)C=O", "value": 0.006}, {"measurement": "photoluminescence quantum yield", "setting": "in COc1ccccc1", "value": 0.43}, {"measurement": "photoluminescence quantum yield", "setting": "in Cc1ccccc1", "value": 0.58}, {"measurement": "photoluminescence quantum yield", "setting": "in ClC(Cl)Cl", "value": 0.49}, {"measurement": "photoluminescence quantum yield", "setting": "in ClCCCl", "value": 0.27}, {"measurement": "photoluminescence quantum yield", "setting": "in ClCCl", "value": 0.36}]}, {"smiles": "O=C1C=CC2=Cc3ccccc3B(O)N12", "values": [{"measurement": "photoluminescence quantum yield", "setting": "in CC#N", "value": 0.97}, {"measurement": "photoluminescence quantum yield", "setting": "in CO", "value": 0.1}, {"measurement": "photoluminescence quantum yield", "setting": "in CS(C)=O", "value": 0.01}, {"measurement": "photoluminescence quantum yield", "setting": "in ClC(Cl)Cl", "value": 0.65}]}, {"smiles": "BrCCCCCCCCCCCCOc1cc2ccc3cccc4ccc(c1)c2c34", "values": [{"measurement": "photoluminescence quantum yield", "setting": "in Cc1ccccc1", "value": 0.59}]}, {"smiles": "CCCC1(CCC)c2cc(-c3ccccc3)ccc2-c2ccc(-c3ccc4c(c3)C(CCC)(CCC)c3cc(-c5ccccc5)ccc3-4)cc21", "values": [{"measurement": "photoluminescence quantum yield", "setting": "in C1CCCCC1", "value": 1}]}, {"smiles": "c1ccc2c(c1)sc1c3ccccc3c3ncncc3c21", "values": [{"measurement": "photoluminescence quantum yield", "setting": "in ClCCl", "value": 0.08}]}, {"smiles": "Cc1nc(-c2ccc(N3c4ccccc4C(c4ccccc4)(c4ccccc4)c4ccccc43)cc2)cc(-c2ccc(N3c4ccccc4C(c4ccccc4)(c4ccccc4)c4ccccc43)cc2)n1", "values": [{"measurement": "photoluminescence quantum yield", "setting": "in Cc1ccccc1", "value": 0.54}, {"measurement": "photoluminescence quantum yield", "setting": "in O=P(c1ccccc1)(c1ccccc1)c1ccc2oc3ccc(P(=O)(c4ccccc4)c4ccccc4)cc3c2c1", "value": 0.92}]}, {"smiles": "c1cc2ccc3ccc4cc3c2cc1c1ccc2c(c1)c1cc(ccc1[C@]13OCCO[C@]21OCCO3)c1ccc2c(c1)c1cc4ccc1[C@]13OCCO[C@]21OCCO3", "values": [{"measurement": "photoluminescence quantum yield", "setting": "in Cc1ccccc1", "value": 0.63}]}]}
